According to US9763445B2, “Safened herbicidal compositions comprising a pyridine carboxylic acid herbicide” (Dow AgroSciences, LLC, priority 2014, dated 2017):

Assays:
wild buckwheat (POLCO) = assay: Postemergence greenhouse trial, % visual injury on wild buckwheat; assay type: in vivo, Polygonum convolvulus; details: for % visual injury, observed (Ob): POLCO; for % visual injury, Ob: alone, 35 g/ha
Procedure: (§1) Seeds of the desired test plant species were planted in Sun Gro MetroMix® 306 planting mixture, which typically has a pH of 6.0 to 6.8 and an organic matter content of about 30 percent, in plastic pots with a surface area of 103.2 square centimeters (cm^2). When required to ensure good germination and healthy plants, a fungicide treatment and/or other chemical or physical treatment was applied. The plants were grown for 7-36 days (d) in a greenhouse with an approximate 14-hour (h) photoperiod which was maintained at about 23° C. during the day and 22° C. during the night. Nutrients and water were added on a regular basis and supplemental lighting was provided with overhead metal halide 1000-Watt lamps as necessary. The plants were employed for testing when they reached the second or third true leaf stage.
(§2) Weighed amounts of technical material were dissolved in a volume of 97:3 volume per volume (v/v) acetone/dimethyl sulfoxide (DMSO) to stock solutions. […] The concentrated stock solutions were diluted with an aqueous mixture of 1.5% v/v of Agri-dex crop oil concentrate to provide the appropriate application rates. Compound requirements are based upon a 12 milliliter (mL) application volume at a rate of 187 liters per hectare (L/ha). Stocks solutions of the safeners were prepared following the same procedure. Spray solutions of the safeners and experimental compound mixtures were prepared by adding the stock solutions to the appropriate amount of dilution solution to form a 12 mL spray solution in two-way combinations. Formulated compounds were applied to the plant material with an overhead Mandel track sprayer equipped with 8002E nozzles calibrated to deliver 187 L/ha over an application area of 0.503 square meters (m^2) at a spray height of 18 inches (43 centimeters (cm)) above average plant canopy. Control plants were sprayed in the same manner with the solvent blank. All herbicide application (component a) rates are in g ae/ha and all safener (component b) rates are in g ai/ha.
(§3) The treated plants and control plants were placed in a greenhouse as described above and watered by sub-irrigation to prevent wash-off of the test compounds. After 20-22 d, the condition of the test plants as compared with that of the control plants was determined visually and scored on a scale of 0 to 100 percent where 0 corresponds to no injury and 100 corresponds to complete kill. The condition of the test plants was compared with that of the control plants as determined visually and scored on a scale of 0 to 100 percent, where 0 corresponds to no injury and 100 corresponds to complete kill. Colby's equation was used to determine the herbicidal effects expected from the mixtures.
The safener cloquintocet-mexyl was combined with compound 1, compound 2, compound 4, compound 5, and compound 6, and applied to corn/maize (ZEAMX) and spring wheat (TRZAS) and the phytotoxicity of the herbicidal compositions was measured. In addition, the efficacy of the herbicidal composition on velvetleaf (ABUTH, Abutilon theophrasti), pigweed (AMARE, Amaranthus retroflexus), winter rape (BRSNW, Brassica napus), lambsquarters (CHEAL, Chenopodium album), thistle (CIRAR, Cirsium arvense), nutsedge (CYPES, Cyperus esculentus), poinsettia (EPHHL, Euphorbia heterophylla), wild buckwheat (POLCO, Polygonum convolvulus), giant foxtail (SETFA, Setaria faberi), and chickweed (STEME, Stellaria media) was evaluated.
(§4) The safener cloquintocet-mexyl was combined with compound 1, compound 2, compound 3, compound 7, compound 8, compound 9, compound 10, compound 11, compound 12, compound 13, compound 14, compound 15, compound 16, compound 17, compound 18, compound 19, and compound 20, and applied to spring wheat (TRZAS), winter wheat (TRZAW), and spring barley (HORVS) and the phytotoxicity of the herbicidal compositions was measured. […]

cleavers (GALAP) = assay: Postemergence greenhouse trial, % visual injury on cleavers; assay type: in vivo, Galium aparine
Procedure: as §1, §2, §3, §4

winter wheat (TRZAW) = assay: Postemergence greenhouse trial, % visual injury on winter wheat; assay type: in vivo, Triticum aestivum
Procedure: as §1, §2, §3, §4

nutsedge (CYPES) = assay: Postemergence greenhouse trial, % visual injury on nutsedge; assay type: in vivo, Cyperus esculentus; details: for % visual injury, observed (Ob): CYPES; for % visual injury, Ob: alone, 35 g/ha
Procedure, shortened: (§5)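 Injury was scored visually (0 = none, 100 = complete kill) 20–22 d after track-sprayer application at 187 L/ha, compared with solvent-sprayed controls. Test plants at the 2–3 true leaf stage; herbicide (g ae/ha) plus cloquintocet-mexyl safener (g ai/ha) in crop-oil-containing spray; expected mixture response by Colby.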

cornflower (CENCY) = assay: Postemergence greenhouse trial, % visual injury on cornflower; assay type: in vivo, Centaurea cyanus or Cyanus segetum
Procedure: as §1, §2, §3, §4

prickly lettuce (LACSE) = assay: Postemergence greenhouse trial, % visual injury on prickly lettuce; assay type: in vivo, Lactuca serriola
Procedure: as §1, §2
as §3, with “mixtures. […]” for “mixtures.”

corn/maize (ZEAMX) = assay: Postemergence greenhouse trial, % visual injury on corn/maize; assay type: in vivo, Zea mays; details: for % visual injury, observed (Ob): ZEAMX; for % visual injury, Ob: alone, 35 g/ha
Procedure, shortened: as §5

[1] = CENCY, compound 4.380 g/ha, CQC-m 0
[2] = CENCY, compound 8.75 g/ha, CQC-m 0
[3] = CENCY, compound 17.5 g/ha, CQC-m 0
[4] = CENCY, compound 35 g/ha, CQC-m 0
[5] = CENCY, compound 70 g/ha, CQC-m 0
[6] = compound 4.375 g/ha, CQC-m 0 g/ha
[7] = compound 8.75 g/ha, CQC-m 0 g/ha
[8] = compound 17.5 g/ha, CQC-m 0 g/ha

COC(=O)c1nc(-c2ccc3cc[nH]c3c2F)c(F)c(N)c1Cl [compound 8]
% visual injury, observed (Ob) (wild buckwheat (POLCO); compound 8 4.380 + CQC-m 0 g/ha): 85%
% visual injury, observed (Ob) (wild buckwheat (POLCO); compound 8 8.75 + CQC-m 0 g/ha): 97%
% visual injury, observed (Ob) (wild buckwheat (POLCO); compound 8 17.5 + CQC-m 0 g/ha): 93%
% visual injury, observed (Ob) (wild buckwheat (POLCO); compound 8 35 + CQC-m 0 g/ha): 100%
% visual injury, observed (Ob) (wild buckwheat (POLCO); compound 8 70 + CQC-m 0 g/ha): 100%

Nc1c(F)c(-c2ccc3scnc3c2)nc(C(=O)O)c1Cl [compound 17]
% visual injury, Ob (cleavers (GALAP); 4.375 g/ha, applied alone): 50%
% visual injury, Ob (cleavers (GALAP); 8.75 g/ha, applied alone): 60%
% visual injury, Ob (cleavers (GALAP); 17.5 g/ha, applied alone): 70%
% visual injury, Ob (cleavers (GALAP); 35 g/ha, applied alone): 90%
% visual injury, Ob (cleavers (GALAP); 70 g/ha, applied alone): 90%

Nc1c(F)c(-c2ccc3cc[nH]c3c2F)nc(C(=O)O)c1Cl [compound 1]
% visual injury, observed (Ob) (winter wheat (TRZAW); TRZAW, compound 1 alone 20 g/ha): 13%
% visual injury, observed (Ob) (winter wheat (TRZAW); TRZAW, compound 1 alone 40 g/ha): 15%
% visual injury, Ob (winter wheat (TRZAW); alone, 35 g/ha): 40%
% visual injury, Ob (winter wheat (TRZAW); alone, 70 g/ha): 50%
% visual injury, observed (Ob) (nutsedge (CYPES); compound 1 alone 20 g/ha): 35%
% visual injury, observed (Ob) (nutsedge (CYPES); compound 1 alone 40 g/ha): 35%
% visual injury, Ob (nutsedge (CYPES)): 80%
% visual injury, Ob (wild buckwheat (POLCO)): 99%
% visual injury, Ob (cornflower (CENCY); alone, 4.375 g/ha): 100%
% visual injury, Ob (cornflower (CENCY); alone, 8.75 g/ha): 100%
% visual injury, Ob (cornflower (CENCY); alone, 35 g/ha): 100%
% visual injury, Ob (prickly lettuce (LACSE); alone, 4.375 g/ha): 70%
% visual injury, Ob (prickly lettuce (LACSE); alone, 8.75 g/ha): 93%
% visual injury, Ob (prickly lettuce (LACSE); alone, 17.5 g/ha): 100%
% visual injury, Ob (prickly lettuce (LACSE); alone, 35 g/ha): 100%
% visual injury, Ob (prickly lettuce (LACSE); alone, 70 g/ha): 100%
% visual injury, observed (Ob) (corn/maize (ZEAMX); compound 1 alone 20 g/ha): 3%
% visual injury, observed (Ob) (corn/maize (ZEAMX); compound 1 alone 40 g/ha): 30%
% visual injury, Ob (corn/maize (ZEAMX)): 40%

CO/C=N/c1c(F)c(-c2ccc3cc[nH]c3c2F)nc(C(=O)OC)c1Cl [compound 10]
% visual injury, Ob (cornflower (CENCY); [1]): 100%
% visual injury, Ob (cornflower (CENCY); [2]): 100%
% visual injury, Ob (cornflower (CENCY); [3]): 100%
% visual injury, Ob (cornflower (CENCY); [4]): 100%
% visual injury, Ob (cornflower (CENCY); [5]): 100%
% visual injury, Ob (prickly lettuce (LACSE); LACSE, compound 4.380 g/ha, CQC-m 0): 95%
% visual injury, Ob (prickly lettuce (LACSE); LACSE, compound 8.75 g/ha, CQC-m 0): 100%
% visual injury, Ob (prickly lettuce (LACSE); LACSE, compound 17.5 g/ha, CQC-m 0): 100%
% visual injury, Ob (prickly lettuce (LACSE); LACSE, compound 35 g/ha, CQC-m 0): 100%
% visual injury, Ob (prickly lettuce (LACSE); LACSE, compound 70 g/ha, CQC-m 0): 100%

Nc1cc(-c2ccc3cc[nH]c3c2F)nc(C(=O)O)c1Cl [compound 15]
% visual injury, Ob (cleavers (GALAP); [6]): 85%
% visual injury, Ob (cleavers (GALAP); [7]): 85%
% visual injury, Ob (cleavers (GALAP); [8]): 93%
% visual injury, Ob (cleavers (GALAP); compound 35 g/ha, CQC-m 0 g/ha): 93%
% visual injury, Ob (cleavers (GALAP); compound 70 g/ha, CQC-m 0 g/ha): 90%

COc1c(C(=O)O)nc(-c2ccc3cc[nH]c3c2F)c(F)c1N [compound 13]
% visual injury, Ob (winter wheat (TRZAW); TRZAW, compound 35 g/ha, CQC-m 0 g/ha): 70%
% visual injury, Ob (winter wheat (TRZAW); TRZAW, compound 70 g/ha, CQC-m 0 g/ha): 80%
% visual injury, Ob (prickly lettuce (LACSE); LACSE, compound 4.375 g/ha, CQC-m 0 g/ha): 85%
% visual injury, Ob (prickly lettuce (LACSE); LACSE, compound 8.75 g/ha, CQC-m 0 g/ha): 93%
% visual injury, Ob (prickly lettuce (LACSE); LACSE, compound 17.5 g/ha, CQC-m 0 g/ha): 95%
% visual injury, Ob (prickly lettuce (LACSE); LACSE, compound 35 g/ha, CQC-m 0 g/ha): 95%
% visual injury, Ob (prickly lettuce (LACSE); LACSE, compound 70 g/ha, CQC-m 0 g/ha): 100%
% visual injury, Ob (cleavers (GALAP); [6]): 40%
% visual injury, Ob (cleavers (GALAP); [7]): 70%
% visual injury, Ob (cleavers (GALAP); [8]): 80%
% visual injury, Ob (cleavers (GALAP); compound 35 g/ha, CQC-m 0 g/ha): 100%
% visual injury, Ob (cleavers (GALAP); compound 70 g/ha, CQC-m 0 g/ha): 100%

Nc1c(F)c(-c2ccc3cc[nH]c3c2F)nc(C(=O)OCc2ccccc2)c1Cl [compound 2]
% visual injury, observed (Ob) (winter wheat (TRZAW); TRZAW, compound 2 35 + CQC-m 0 g/ha): 20%
% visual injury, observed (Ob) (winter wheat (TRZAW); TRZAW, compound 2 70 + CQC-m 0 g/ha): 30%
% visual injury, observed (Ob) (winter wheat (TRZAW); TRZAW, compound 2 140 + CQC-m 0 g/ha): 50%
% visual injury, Ob (nutsedge (CYPES)): 30%
% visual injury, Ob (wild buckwheat (POLCO)): 100%
% visual injury, observed (Ob) (prickly lettuce (LACSE); LACSE, compound 2 4.380 + CQC-m 0 g/ha): 40%
% visual injury, observed (Ob) (prickly lettuce (LACSE); LACSE, compound 2 8.75 + CQC-m 0 g/ha): 99%
% visual injury, observed (Ob) (prickly lettuce (LACSE); LACSE, compound 2 17.5 + CQC-m 0 g/ha): 99%
% visual injury, observed (Ob) (prickly lettuce (LACSE); LACSE, compound 2 35 + CQC-m 0 g/ha): 100%
% visual injury, observed (Ob) (prickly lettuce (LACSE); LACSE, compound 2 70 + CQC-m 0 g/ha): 100%
% visual injury, observed (Ob) (cleavers (GALAP); compound 2 4.380 + CQC-m 0 g/ha): 20%
% visual injury, observed (Ob) (cleavers (GALAP); compound 2 8.75 + CQC-m 0 g/ha): 30%
% visual injury, observed (Ob) (cleavers (GALAP); compound 2 17.5 + CQC-m 0 g/ha): 93%
% visual injury, observed (Ob) (cleavers (GALAP); compound 2 35 + CQC-m 0 g/ha): 85%
% visual injury, observed (Ob) (cleavers (GALAP); compound 2 70 + CQC-m 0 g/ha): 97%
% visual injury, Ob (corn/maize (ZEAMX)): 35%

COC(=O)c1nc(-c2ccc3cc[nH]c3c2F)c(F)c(N)c1OC [compound 12]
% visual injury, Ob (cornflower (CENCY); [1]): 85%
% visual injury, Ob (cornflower (CENCY); [2]): 95%
% visual injury, Ob (cornflower (CENCY); [3]): 100%
% visual injury, Ob (cornflower (CENCY); [4]): 100%
% visual injury, Ob (cornflower (CENCY); [5]): 100%
